Here are results for 25 molecules from patent US20240245658A1, “TAAR1 AND SEROTONIN MODULATORS, AND PHARMACEUTICAL COMPOSITIONS, AND METHODS OF USE THEREOF” (Sunovion Pharmaceuticals Inc., priority 2021, published 2024).

What is called EC50 is the concentration at which the effect is half-maximal. The term IC50 denotes the concentration needed to halve the response being measured.

Assay type in all cases: cell-based
In experiment [1] the target is T1, human TAAR1 receptors (Homo sapiens, UniProt Q96RJ0).
T1 construct: host or cells: CHO-K1
T1 sequence (Q96RJ0 1-339): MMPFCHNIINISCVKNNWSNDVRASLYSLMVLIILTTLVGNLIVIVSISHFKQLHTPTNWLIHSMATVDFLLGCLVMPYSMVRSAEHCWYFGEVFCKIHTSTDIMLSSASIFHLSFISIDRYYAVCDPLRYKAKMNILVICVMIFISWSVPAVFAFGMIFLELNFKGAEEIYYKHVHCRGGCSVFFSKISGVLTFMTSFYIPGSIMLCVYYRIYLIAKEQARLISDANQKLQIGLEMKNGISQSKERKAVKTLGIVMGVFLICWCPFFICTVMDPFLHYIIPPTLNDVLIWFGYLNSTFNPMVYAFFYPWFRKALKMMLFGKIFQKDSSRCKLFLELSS
In words: TAAR1 Agonism Assay: cAMP HTRF assay for Gs coupled receptor TAAR1 (Euroscreen FAST-0987C). The following applies: CHO-K1 cells expressing human TAAR1, cAMP HTRF. The method, boiled down: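 cAMP accumulation detected by HTRF fluorescence ratio, reagents added in lysis buffer and incubated 1 h at about room temperature. Beforehand, cells (about 3,000 per well) sat with test compound at ten concentrations from 0.3 to 10,000 nM in duplicate for roughly 30 min at about room temperature; tyramine dose-response run alongside.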
A general note: TR-FRET usually uses a lanthanide donor and a delayed reading to cut background.

Experiment [2] has as its target T2, human 5-HT2A receptor (Homo sapiens, UniProt P28223).
T2 construct: host or cells: CHO-K1
In words: 5HT2A Antagonism Assay (Euroscreen FAST-05051), IP-One HTRF. The method, boiled down:
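CHO-K1 cells expressing receptor, 20,000/well, co-incubated with test compound and reference agonist at its EC80 for 60 min at 37 °C. IP1 accumulation read by HTRF after ~1 h detection at room temperature. Compounds tested in duplicate at 0.3–10,000 nM.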

Experiment [3] deals with T3, human 5-HT7 receptor (Homo sapiens, UniProt P34969).
T3 construct: host or cells: CHO-K1
The experiment is described as follows: 5HT7 Antagonism Assay (Euroscreen FAST-0499C), cAMP HTRF. To be noted: CHO-K1 cells expressing human 5-HT7, reference agonist at EC80, cAMP HTRF. Put shortly:
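CHO-K1 cells expressing human 5-HT7, 3000 per well in Krebs-Ringer HEPES with 1 mM IBMX, were exposed for 30 minutes at room temperature to compound plus reference agonist at its EC80. cAMP was read by HTRF after 1 hour; compounds were tested in duplicate from 0.3 to 10,000 nM.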

[4] abbreviates: 5-HT2A (IC50), CHO-K1 cells expressing human 5-HT2A, reference agonist at EC80, IP-One.
Where [5] appears, read: read-out: 5-HT2A (IC50), CHO-K1 cells expressing human 5-HT2A, reference agonist at EC80, IP-One.

Molecules are shown by their SMILES. Read-outs that look alike come from different tables or passages of the source.

T2 sequence (P28223 whole entry): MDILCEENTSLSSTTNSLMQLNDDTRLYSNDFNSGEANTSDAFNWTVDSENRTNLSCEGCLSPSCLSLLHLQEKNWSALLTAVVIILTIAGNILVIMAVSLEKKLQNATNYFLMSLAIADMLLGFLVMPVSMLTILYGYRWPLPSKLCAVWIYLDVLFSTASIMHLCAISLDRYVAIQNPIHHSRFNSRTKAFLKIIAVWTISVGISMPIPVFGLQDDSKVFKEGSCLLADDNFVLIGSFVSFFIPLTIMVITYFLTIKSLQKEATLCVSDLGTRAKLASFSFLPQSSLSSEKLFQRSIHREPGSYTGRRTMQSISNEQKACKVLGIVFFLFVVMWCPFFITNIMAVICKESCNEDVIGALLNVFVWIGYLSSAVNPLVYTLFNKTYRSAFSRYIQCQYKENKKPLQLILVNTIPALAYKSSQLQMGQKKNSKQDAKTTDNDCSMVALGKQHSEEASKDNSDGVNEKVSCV
T3 sequence (P34969 whole entry): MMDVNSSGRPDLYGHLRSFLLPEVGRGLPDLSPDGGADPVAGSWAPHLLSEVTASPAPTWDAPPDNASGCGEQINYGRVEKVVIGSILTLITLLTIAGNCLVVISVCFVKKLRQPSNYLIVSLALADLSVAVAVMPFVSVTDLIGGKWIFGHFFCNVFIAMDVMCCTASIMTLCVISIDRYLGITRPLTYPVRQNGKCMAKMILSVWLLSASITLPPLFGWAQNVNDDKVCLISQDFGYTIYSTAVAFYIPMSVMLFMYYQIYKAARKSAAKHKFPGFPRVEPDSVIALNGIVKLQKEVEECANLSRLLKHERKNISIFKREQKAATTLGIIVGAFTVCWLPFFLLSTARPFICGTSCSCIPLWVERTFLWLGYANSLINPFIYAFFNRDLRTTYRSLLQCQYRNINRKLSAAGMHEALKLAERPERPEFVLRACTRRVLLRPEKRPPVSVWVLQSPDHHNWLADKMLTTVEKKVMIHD

The molecule `NCC1Cc2ccccc2Oc2c(F)cccc21` (single isomer, unassigned) [Compound 101, (S*)-(6-fluoro-10,11-dihydrodibenzo[b,f]oxepin-10-yl)methanamine] returned an EC50 in experiment [1] of less than 1000 nM. Besides, the IC50 is more than 10000 nM in experiment [2] (setting [4]) and not below 10000 nM in experiment [3].

Take `CNCC1Cc2ccccc2Oc2c(F)cccc21` (single isomer, unassigned) [Compound 102, (R*)-(6-fluoro-10,11-dihydrodibenzo[b,f]oxepin-10-yl)-N-methylmethanamine]: the EC50 in experiment [1] is less than 1000 nM. In addition, the IC50 in experiment [2] (setting [4]) was less than 1000 nM; in experiment [3], not below 10000 nM.

Regarding `NCC1Cc2ccccc2Oc2cccc(F)c21` (single isomer, unassigned) [Compound 104, (R*)-(9-fluoro-10,11-dihydrodibenzo[b,f]oxepin-10-yl)methanamine], the EC50 in experiment [1] is less than 1000 nM. For the same molecule, the IC50 in experiment [2] (setting [4]) was 1000 to 10000 nM; in experiment [3], not below 10000 nM.

`NCC1Cc2ccccc2Oc2cccc(F)c21` (single isomer, unassigned) [Compound 105, (S*)-(9-fluoro-10,11-dihydrodibenzo[b,f]oxepin-10-yl)methanamine] had an EC50 in experiment [1] of 1000 to 10000 nM. Besides, the IC50 in experiment [2] (setting [4]) is more than 10000 nM; in experiment [3], not below 10000 nM.

In experiment [1], `CNCC1Cc2ccccc2Oc2cccc(F)c21` (single isomer, unassigned) [Compound 106, (R*)-(9-fluoro-10,11-dihydrodibenzo[b,f]oxepin-10-yl)-N-methylmethanamine] yielded an EC50 of less than 1000 nM. Moreover, the IC50 in experiment [2] (setting [4]) is less than 1000 nM; in experiment [3], not below 10000 nM.

`CNCC1Cc2ccccc2Oc2cccc(F)c21` (single isomer, unassigned) [Compound 107, (S*)-(9-fluoro-10,11-dihydrodibenzo[b,f]oxepin-10-yl)-N-methylmethanamine] returned an EC50 in experiment [1] of more than 10000 nM. Besides, the IC50 was 1000 to 10000 nM in experiment [2] (setting [4]) and not below 10000 nM in experiment [3].

As to `CCNCC1Cc2ccccc2Oc2cccnc21` (single isomer, unassigned) [Compound 109, (R*)-1-(10,11-dihydrobenzo-[6,7]oxepino[3,2-b]pyridin-11-yl)-N-ethylmethanamine], in experiment [1], the EC50 was less than 1000 nM. Further, the IC50 in experiment [2] (setting [4]) is 1000 to 10000 nM; in experiment [3] it was not below 10000 nM.

Take `CN(C)CC1Cc2ccccc2Oc2cccnc21` (single isomer, unassigned) [Compound 111, (R*)-1-(10,11-dihydro-benzo[6,7]oxepino[3,2-b]pyridin-11-yl)-N,N-dimethylmethanamine]: the EC50 in experiment [1] is less than 1000 nM. Also, the IC50 is 1000 to 10000 nM in experiment [2] (setting [4]) and not below 10000 nM in experiment [3].

As to `NCC1Cc2cc(Cl)ccc2Oc2cccnc21` (single isomer, unassigned) [Compound 120, (S*)-(8-chloro-10,11-dihydrobenzo[6,7]oxepino[3,2-b]pyridin-11-yl)methanamine], in experiment [1], the EC50 is less than 1000 nM. For the same molecule, the values for the IC50 in experiment [2] (setting [4]) and in experiment [3] were 1000 to 10000 nM and not below 10000 nM, respectively.

Turning to `NCC1Cc2cc(Cl)ccc2Oc2cccnc21` (single isomer, unassigned) [Compound 121, (R*)-(8-chloro-10,11-dihydrobenzo[6,7]oxepino[3,2-b]pyridin-11-yl)methanamine], the EC50 in experiment [1] was less than 1000 nM. The IC50 in experiment [2] (setting [4]) and in experiment [3] was less than 1000 nM in each case.

Turning to `CNCC1Cc2cc(Cl)ccc2Oc2cccnc21` (single isomer, unassigned) [Compound 122, (S*)-(8-chloro-10,11-dihydrobenzo[6,7]oxepino[3,2-b]pyridin-11-yl)-N-methylmethanamine], in experiment [1], the EC50 is less than 1000 nM. The IC50 was less than 1000 nM in experiment [2] (setting [4]) and 1000 to 10000 nM in experiment [3].

For the molecule `CNCC1Cc2cc(Cl)ccc2Oc2cccnc21` (single isomer, unassigned) [Compound 123, (R*)-(8-chloro-10,11-dihydrobenzo[6,7]oxepino[3,2-b]pyridin-11-yl)-N-methylmethanamine], the EC50 in experiment [1] was less than 1000 nM. The IC50 in experiment [2] (setting [5]) and in experiment [3] was less than 1000 nM throughout.

`NCC1Cc2ccc(Cl)cc2Oc2cccnc21` (single isomer, unassigned) [Compound 124, (S*)-(7-chloro-10,11-dihydrobenzo[6,7]oxepino[3,2-b]pyridin-11-yl)methanamine] showed an EC50 in experiment [1] of less than 1000 nM. Also, the IC50 in experiment [2] (setting [4]) was 1000 to 10000 nM; in experiment [3], not below 10000 nM.

With `NCC1Cc2ccc(Cl)cc2Oc2cccnc21` (single isomer, unassigned) [Compound 125, (R*)-(7-chloro-10,11-dihydrobenzo[6,7]oxepino[3,2-b]pyridin-11-yl)methanamine], the EC50 in experiment [1] is less than 1000 nM. The IC50 in experiment [2] (setting [4]) was more than 10000 nM; in experiment [3] it was not below 10000 nM.

`CNCC1Cc2ccc(Cl)cc2Oc2cccnc21` (single isomer, unassigned) [Compound 126, (S*)-(7-chloro-10,11-dihydrobenzo[6,7]oxepino[3,2-b]pyridin-11-yl)-N-methylmethanamine]: the EC50 in experiment [1] was less than 1000 nM. In addition, the IC50 in experiment [2] (setting [4]) was less than 1000 nM; in experiment [3], not below 10000 nM.

With `CNCC1Cc2ccc(Cl)cc2Oc2cccnc21` (single isomer, unassigned) [Compound 127, (R*)-(7-chloro-10,11-dihydrobenzo[6,7]oxepino[3,2-b]pyridin-11-yl)-N-methylmethanamine], the EC50 in experiment [1] was less than 1000 nM. In addition, the IC50 in experiment [2] (setting [5]) is less than 1000 nM; in experiment [3], 1000 to 10000 nM.

In experiment [1], `Cc1ccc2c(c1)CC(CN)c1ncccc1O2` (single isomer, unassigned) [Compound 128, (S*)-(8-methyl-10,11-dihydrobenzo[6,7]oxepino[3,2-b]pyridin-11-yl)methanamine] showed an EC50 of less than 1000 nM. The concentration for half-maximal inhibition (IC50) in experiment [2] (setting [4]) and in experiment [3] was 1000 to 10000 nM in each case.

`Cc1ccc2c(c1)CC(CN)c1ncccc1O2` (single isomer, unassigned) [Compound 129, (R*)-(8-methyl-10,11-dihydrobenzo[6,7]oxepino[3,2-b]pyridin-11-yl)methanamine] displayed an EC50 in experiment [1] of less than 1000 nM. Further, the IC50 in experiment [2] (setting [4]) and in experiment [3] was less than 1000 nM throughout.

`CNCC1Cc2cc(C)ccc2Oc2cccnc21` (single isomer, unassigned) [Compound 130, (S*)—N-methyl-1-(8-methyl-10,11-dihydrobenzo[6,7]oxepino[3,2-b]pyridin-11-yl)methanamine] registered an EC50 in experiment [1] of less than 1000 nM. For the same molecule, the results for the IC50 in experiment [2] (setting [4]) and in experiment [3] were less than 1000 nM and 1000 to 10000 nM, respectively.

As for `CNCC1Cc2cc(C)ccc2Oc2cccnc21` (single isomer, unassigned) [Compound 131, (R*)—N-methyl-1-(8-methyl-10,11-dihydrobenzo[6,7]oxepino[3,2-b]pyridin-11-yl)methanamine], in experiment [1], the EC50 is less than 1000 nM. Besides, the IC50 in experiment [2] (setting [5]) and in experiment [3] was less than 1000 nM each time.

In turn, `Cc1ccc2c(c1)Oc1cccnc1C(CN)C2` (single isomer, unassigned) [Compound 132, (S*)-(7-methyl-10,11-dihydrobenzo[6,7]oxepino[3,2-b]pyridin-11-yl)methanamine] had an EC50 in experiment [1] of less than 1000 nM. The IC50 is more than 10000 nM in experiment [2] (setting [4]) and not below 10000 nM in experiment [3].

In turn, `Cc1ccc2c(c1)Oc1cccnc1C(CN)C2` (single isomer, unassigned) [Compound 133, (R*)-(7-methyl-10,11-dihydrobenzo[6,7]oxepino[3,2-b]pyridin-11-yl)methanamine] registered an EC50 in experiment [1] of less than 1000 nM. For the same molecule, the values for the IC50 in experiment [2] (setting [4]) and in experiment [3] were 1000 to 10000 nM and not below 10000 nM, respectively.

Regarding `CNCC1Cc2ccc(C)cc2Oc2cccnc21` (single isomer, unassigned) [Compound 134, (S*)—N-methyl-1-(7-methyl-10,11-dihydrobenzo[6,7]-oxepino[3,2-b]pyridin-11-yl)methanamine], the EC50 in experiment [1] was less than 1000 nM. In addition, the IC50 was less than 1000 nM in experiment [2] (setting [4]) and 1000 to 10000 nM in experiment [3].

Take `CNCC1Cc2ccc(C)cc2Oc2cccnc21` (single isomer, unassigned) [Compound 135, (R*)—N-methyl-1-(7-methyl-10,11-dihydrobenzo[6,7]oxepino[3,2-b]pyridin-11-yl)methanamine]: the EC50 in experiment [1] was less than 1000 nM. Besides, the IC50 in experiment [2] (setting [5]) is less than 1000 nM; in experiment [3] it was 1000 to 10000 nM.

Consider `NCC1Cc2c(F)cccc2Oc2cccnc21` (single isomer, unassigned) [Compound 136, (S*)-(9-fluoro-10,11-dihydrobenzo[6,7]oxepino[3,2-b]pyridin-11-yl)methanamine], for which the EC50 in experiment [1] was less than 1000 nM. Further, the values for the IC50 in experiment [2] (setting [4]) and in experiment [3] were 1000 to 10000 nM and not below 10000 nM, respectively.
